According to BindingDB's records for doi:10.1016/j.bmcl.2019.06.040 (Shenyang Pharmaceutical University, 2019):

Biological target: T1, Cytochrome P450 11B2, mitochondrial (Homo sapiens, UniProt P19099)
T1 sequence (P19099 whole entry): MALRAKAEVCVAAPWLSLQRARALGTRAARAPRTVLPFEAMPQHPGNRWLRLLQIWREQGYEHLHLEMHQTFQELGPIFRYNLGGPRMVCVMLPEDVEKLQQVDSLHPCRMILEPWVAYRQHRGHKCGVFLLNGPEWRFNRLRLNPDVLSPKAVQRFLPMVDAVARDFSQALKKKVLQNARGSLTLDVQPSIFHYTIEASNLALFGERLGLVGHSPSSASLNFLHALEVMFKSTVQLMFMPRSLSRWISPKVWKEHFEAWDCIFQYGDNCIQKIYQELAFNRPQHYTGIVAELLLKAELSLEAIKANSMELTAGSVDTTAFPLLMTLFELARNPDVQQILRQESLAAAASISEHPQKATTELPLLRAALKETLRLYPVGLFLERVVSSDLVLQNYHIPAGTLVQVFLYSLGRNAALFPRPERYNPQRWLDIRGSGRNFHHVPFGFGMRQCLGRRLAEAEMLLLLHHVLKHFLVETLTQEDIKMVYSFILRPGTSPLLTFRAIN
Experiment: Inhibition of CYP11B2 (unknown origin)

| SMILES | IC50 [nM] |
| --- | --- |
| Cc1nnc2n1-c1cc(F)c(-c3cccnc3)cc1CC2 | 131 |
| Fc1cc(-c2cccnc2)cc2c1-n1cnnc1CC2 | 172 |
| Fc1cc2c(cc1-c1cccnc1)CCc1nncn1-2 | 244 |
| Cc1nnc2n1-c1c(F)cc(-c3cccnc3)cc1CC2 | 63 |
